Numbered stars: 1 amine (or outer) side, 2 acyl side, 3 side chain; on linkers, the order of the positions; unused ones are H or OH. Bridge positions count the residues as written; N and C are the ends. Square brackets hold non-standard residues; d marks the D form. Peptide text beside a SMILES is read from it. * marks the point of attachment. C20 diacid = O=C(O)CCCCCCCCCCCCCCCCCCC(=O)*; γGlu = O=C(O)[C@H](CCC(=O)[*:2])N[*:1]; NMeY = CN[C@@H](Cc1ccc(O)cc1)C(=O)O; NMeI = CC[C@H](C)[C@H](NC)C(=O)O; Sar = CNCC(=O)O
What was measured:
[1] = Assessment of chemical stability: normalized purity by RP-HPLC after incubation at 40 °C; format: physicochemical; details: normalized purity (T=0 set to 100), 0.2 mg/ml
Experimental: Samples of each test peptide were dissolved in MilliQ™ water, and the pH of the solution was adjusted to pH 4, pH 7.5 or pH 9, respectively, using either HCI or NaOH. The final peptide concentration was 0.2 mg/ml. Samples were placed in glass vials and incubated at 40 °C. The samples were analyzed by RP-HPLC on a C8 column with gradient elution using an ammonium formate/water eluent system, or on a C18 column with gradient elution using a trifluoroacetic acid/water eluent system. The area-percentage (area-%) of the main peak after incubation time T = t (relative to time T = 0) was determined by UV spectroscopy at 220 nm.
The purity was first determined as follows: Purity(area−%) = (area of main peak/total area of all peaks) × 100. [formula]
The purity was then normalized between time points by setting purity at time 0 (T=0) to 100 for each pH value for a given peptide, as follows: Normalised area−%at time t(T = t) = [area−%(T = t)/area−%(T = 0)] × 100. [formula]
The normalized purity values in Table 2 were determined after 7 days of incubation. Table 2. EC50, chemical stability and fibrillation data for compounds of the invention

[2] = Assessment of physical stability: fibril formation detected with Thioflavin T (ThT), lag-time; format: physicochemical; details: 1 mg/ml peptide, 40 µM ThT, FND = Fibrillation not detected
Experimental: Solutions containing (i) 1 mg/ml of test peptide, 40 µM ThT and 50 mM phosphate (Ph) buffer (pH 7.0), (ii) 1 mg/ml of test peptide, 40 µM ThT and 50 mM histidine (His) buffer (pH 7.0), and (iii) 1 mg/ml of test peptide, 40 µM ThT and 50 mM acetate (Ac) buffer (pH 4.0), were loaded in a 96-well black fluorescence plate (clear bottom) in triplicate. Data were collected at fixed intervals of 10 min, each preceded by 300 s of automixing (agitation), over a period of 96 hours at 40° C. Physical stability, expressed as lag-time of fibril formation (in hours), was defined as the intersection between two linear regressions representing the initial stable phase and the growth phase.

[3] = molecular target: T1, human calcitonin receptor (hCTR2) (Homo sapiens, UniProt P30988); experiment: hCTR2 assay: induction of cAMP (AlphaScreen cAMP Assay kit) in COS7 cells expressing hCTR2; format: cell-based
T1 construct: expressed in transfected cells
T1 sequence (P30988 25-474): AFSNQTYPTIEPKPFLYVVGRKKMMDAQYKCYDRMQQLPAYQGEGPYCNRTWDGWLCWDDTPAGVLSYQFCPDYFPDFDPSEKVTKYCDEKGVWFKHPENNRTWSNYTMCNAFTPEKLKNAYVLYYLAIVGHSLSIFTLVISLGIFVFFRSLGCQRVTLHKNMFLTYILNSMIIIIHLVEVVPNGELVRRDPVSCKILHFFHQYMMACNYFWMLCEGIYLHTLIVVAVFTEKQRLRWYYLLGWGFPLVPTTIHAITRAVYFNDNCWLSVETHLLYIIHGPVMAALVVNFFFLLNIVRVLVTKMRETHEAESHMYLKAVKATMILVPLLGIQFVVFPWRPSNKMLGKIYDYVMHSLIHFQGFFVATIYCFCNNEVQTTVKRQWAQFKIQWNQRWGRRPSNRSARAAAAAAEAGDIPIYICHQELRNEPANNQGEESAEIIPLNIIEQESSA
Summary of the method: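 Functional agonism is measured as cAMP accumulation in a COS7 line stably transfected with hCTR2, lacking endogenous RAMPs. Peptides act for 15 min at 37° C with IBMX present, and curves are fitted with a 4-parameter logistic model.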

[4] = Solubility assessment (turbidity absorbance at 325 nm); format: physicochemical; details: stock 2 mg/ml diluted 1:1, ambient temperature (typically 25°C), n=1
Summary of the method: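 Peptide stock (2 mg/ml) in water acidified to pH 2.5 with HCl was diluted 1:1 into 100 mM acetate (pH 4.0, 5.0), histidine (pH 6.0, 7.0) or phosphate (pH 6.0, 7.0, 7.5) buffer. A280 and A325 were read at about 25°C, n=1. A325 ≤ 0.02 meant solubility ≥ 1 mg/ml.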

[5] = system: Sprague Dawley (SD) rats; experiment: Acute food intake and body weight in normal Sprague Dawley rats; format: in vivo; details: vehicle-corrected, dose 30 nmol/kg sc, once
Experimental: Sprague Dawley (SD) rats were obtained from Taconic A/S, Denmark. The animals arrived at least 7 days before the study start to allow acclimatization to experimental conditions. From arrival and throughout the study, the rats were housed in groups of 2 (n = 2) in a light-, temperature- and humidity-controlled room (reversed 12/12 h light/dark cycle: lights turned off during day-time and on during night-time; temperature 20-22°C; relative humidity 50-80%). Animals had access ad libitum to food (Altromin™ 1324, Brogaarden A/S, Gentofte, Denmark) and water (domestic quality tap water with citric acid added to pH ∼ 3.6) during the entire study. Stratification of rats was based on body weight (BW) on a cage-by-cage basis; mean BWs per cage were used as the basis for pairing four cages together in a group (n = 8 per group). A vehicle group and positive control group were included in each set of tests. Rats were dosed subcutaneously (sc) once in the morning immediately before turning off the lights, using a body weight-corrected dose of peptide (30 nmol/kg). Dosing volume was 5 ml/kg. Food intake was recorded manually at t = 0 (pre-dose) and at t = 4, 7, 10, 24, 48, 72 and 96 hours after dosing. Body weight was measured daily.
Statistical analyses on body weight were performed using GraphPad™ Prism version 5. The measured parameters were compared using unpaired t tests. Differences were considered statistically significant at p < 0.05. Data are means ± SEM; n =8.

## CC[C@H](C)[C@@H](C(=O)N[C@@H](CC(C)C)C(=O)N[C@@H](CO)C(=O)N[C@@H](CO)C(=O)N[C@H](C(=O)N[C@@H](CC(N)=O)C(=O)N[C@H](C(=O)NCC(=O)N[C@@H](CO)C(=O)N[C@@H](CC(N)=O)C(=O)N[C@H](C(=O)N1CCC[C@H]1C(N)=O)[C@@H](C)O)C(C)C)[C@@H](C)O)N(C)C(=O)[C@H](C)NC(=O)CN(C)C(=O)[C@H](Cc1ccccc1)NC(=O)[C@H](CC(N)=O)NC(=O)[C@H](CC(N)=O)NC(=O)[C@@H](CO)NC(=O)[C@H](CO)NC(=O)[C@H](Cc1c[nH]cn1)NC(=O)[C@H](Cc1c[nH]cn1)NC(=O)[C@H](CC(C)C)NC(=O)[C@H](Cc1ccccc1)NC(=O)[C@H](CCC(=O)O)NC(=O)[C@H](C)NC(=O)[C@H](CC(C)C)NC(=O)[C@H](CCCNC(=N)N)NC(=O)[C@H](CCC(N)=O)NC(=O)[C@@H](NC(=O)[C@H](C)NC(=O)[C@@H]1CSSC[C@H](NC(=O)[C@H](CCCNC(=N)N)NC(=O)CC[C@H](NC(=O)CCCCCCCCCCCCCCCCCCC(=O)O)C(=O)O)C(=O)N[C@@H](CC(N)=O)C(=O)N[C@@H]([C@@H](C)O)C(=O)N[C@@H](C)C(=O)N[C@@H]([C@@H](C)O)C(=O)N1)[C@@H](C)O [Compound 31, [19CD]-isoGlu-RC()NTATC()ATQRLAEFLHHS-DSer-NNF-Gly(Me)-A-Ile(Me)-LSSTNVGSNTP-NH2] ({C20 diacid-γGlu}-RCNTATCATQRLAEFLHHS[dS]NNF[Sar]A[NMeI]LSSTNVGSNTP-NH2; disulfide 2-7)
[1]; pH 4, 7 days
  Chem. stability; 7 days, 40°C pH 4: 80 area-%
[1]; pH 7.5, 7 days
  Chem. stability; 7 days, 40°C pH 7.5: 66 area-%

## CC[C@H](C)[C@@H](C(=O)N[C@@H](CC(C)C)C(=O)N[C@@H](CO)C(=O)N[C@@H](CO)C(=O)N[C@H](C(=O)N[C@@H](CC(N)=O)C(=O)N[C@H](C(=O)NCC(=O)N[C@@H](CO)C(=O)N[C@@H](CC(N)=O)C(=O)N[C@H](C(=O)N(C)[C@@H](Cc1ccc(O)cc1)C(N)=O)[C@@H](C)O)C(C)C)[C@@H](C)O)N(C)C(=O)[C@H](C)NC(=O)CN(C)C(=O)[C@H](Cc1ccccc1)NC(=O)[C@H](CC(N)=O)NC(=O)[C@H](CC(N)=O)NC(=O)[C@H](CO)NC(=O)[C@H](CO)NC(=O)[C@H](Cc1c[nH]cn1)NC(=O)[C@H](Cc1c[nH]cn1)NC(=O)[C@H](CC(C)C)NC(=O)[C@H](Cc1ccccc1)NC(=O)[C@H](CCC(=O)O)NC(=O)[C@H](C)NC(=O)[C@H](CC(C)C)NC(=O)[C@H](CCCNC(=N)N)NC(=O)[C@H](CCC(N)=O)NC(=O)[C@@H](NC(=O)[C@H](C)NC(=O)[C@@H]1CSSC[C@H](NC(=O)[C@H](CCCNC(=N)N)NC(=O)CC[C@H](NC(=O)CCCCCCCCCCCCCCCCCCC(=O)O)C(=O)O)C(=O)N[C@@H](CC(N)=O)C(=O)N[C@@H]([C@@H](C)O)C(=O)N[C@@H](C)C(=O)N[C@@H]([C@@H](C)O)C(=O)N1)[C@@H](C)O [Compound 61, [19CD]-isoGlu-RC()NTATC()ATQRLAEFLHHSSNNF-Gly(Me)-A-Ile(Me)-LSSTNVGSNT-Tyr(Me)-NH2] ({C20 diacid-γGlu}-RCNTATCATQRLAEFLHHSSNNF[Sar]A[NMeI]LSSTNVGSNT[NMeY]-NH2; disulfide 2-7)
[2]; 50 mM acetate buffer pH 4.0, 96 hours at 40°C
  Fibrillation lag time (hours) pH 4.0 (Ac): FND
[2]; 50 mM histidine buffer pH 7.0, 96 hours at 40°C
  Fibrillation lag time (hours) pH 7.0 (His): 3 hours
[2]; 50 mM phosphate buffer pH 7.0, 96 hours at 40°C
  Fibrillation lag time (hours) pH 7.0 (Ph): 3 hours
[3]
  EC50: 0.3 nM
[4]; 100 mM acetate buffer pH 4.0
  Solubility, Acetate buffer pH 4: SS (SS indicates solubility ≥ 1mg/ml)
[4]; 100 mM acetate buffer pH 5.0
  Solubility, Acetate buffer pH 5: SS (SS indicates solubility ≥ 1mg/ml)
[4]; 100 mM histidine buffer pH 6.0
  Solubility, Histidine buffer pH 6: II (II indicates solubility ≤ 1 mg/ml)
[4]; 100 mM histidine buffer pH 7.0
  Solubility, Histidine buffer pH 7: II (II indicates solubility ≤ 1 mg/ml)
[4]; 100 mM phosphate buffer pH 6.0
  Solubility, Phosphate buffer pH 6: II (II indicates solubility ≤ 1 mg/ml)
[4]; 100 mM phosphate buffer pH 7.0
  Solubility, Phosphate buffer pH 7: II (II indicates solubility ≤ 1 mg/ml)
[4]; 100 mM phosphate buffer pH7.5
  Solubility, Phosphate buffer pH 7.5: II (II indicates solubility ≤ 1 mg/ml)
[5]; 48 hours
  Food intake inhibition (%) after 48 hours: 24%
[5]; mean ± SEM, 96 hours, n = 8
  Body weight loss (%) after 96 hours: 1 ± 1.6 %

From EP3046573B1, “AMYLIN ANALOGUES” (Zealand Pharma A/S, priority 2013, dated 2015)
